Test systems include SF-295; RXF 393; M14; PC-3; MOLT-4; MDA-N; UO-31; DU-145; SK-MEL-5; HOP-62; SK-MEL-2; BT-549; K562; OVCAR-8; 786-0; COLO 205; CCRF-CEM; SNB-75; SW-620.
Common to all, as to assay: NCI tumour cell line growth inhibition, 48 h

SMILES strings stand for the structures.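 Compound exposure: 48 hours, 5 concentrations, 96-well plates. GI50: concentration for 50% inhibition of growth.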 Active and inactive are the calls of the source. Rule as the data show it: active = GI50 up to about 1.1 µM and inactive = higher.

For the compound `CSC(SC)=C1CC(=O)Nc2ccccc2C1=O`, the GI50 in the test with SF-295 was > 100 µM (inactive); in the test on RXF 393, 18.6 µM (inactive); in the test with M14, 80.2 µM (inactive); in the test with PC-3, > 100 µM (inactive); with MOLT-4, 26.1 µM (inactive); in the test with MDA-N it was 40.6 µM (inactive). Besides, the GI50 is 55.1 µM (inactive) in the test on UO-31; 91.6 µM (inactive) in the test on DU-145; 51.5 µM (inactive) with SK-MEL-5; > 100 µM (inactive) in the test with HOP-62; 53.3 µM (inactive) in the test on SK-MEL-2; 40.3 µM (inactive) in the test on BT-549. In addition, the GI50 with K562 is 27.7 µM (inactive); in the test on OVCAR-8 it was > 100 µM (inactive); in the test on 786-0 it was 45.6 µM (inactive); in the test on COLO 205, 58.2 µM (inactive); in the test with CCRF-CEM it was 19.7 µM (inactive).
As for `CCOC(=O)CCCOc1cc(-c2ccccc2F)nc2cc3c(cc12)OCO3`, the GI50 in the test on M14 is 53 µM (inactive); with PC-3, 29.6 µM (inactive); with MOLT-4, 27.3 µM (inactive); in the test on MDA-N, 88.7 µM (inactive); with DU-145, > 100 µM (inactive); in the test with SK-MEL-5 it was 57.7 µM (inactive). In addition, the GI50 in the test with HOP-62 was > 100 µM (inactive); in the test on SK-MEL-2, > 100 µM (inactive); in the test on SNB-75 it was 40.9 µM (inactive); in the test with BT-549, 19.9 µM (inactive); in the test with OVCAR-8, > 100 µM (inactive); with SW-620, > 100 µM (inactive). Besides, the GI50 was > 100 µM (inactive) in the test with 786-0, > 100 µM (inactive) in the test on COLO 205 and 30.8 µM (inactive) with CCRF-CEM.
Turning to `COc1ccc(C2=NNC(c3cc4cc(Br)ccc4nc3Cl)C2)cc1` (configuration not stated), the GI50 in the test with M14 is 11.5 µM (inactive); in the test with PC-3, 11.9 µM (inactive); in the test with MOLT-4, 3.82 µM (inactive); in the test on MDA-N, 6.31 µM (inactive); with UO-31, 13.1 µM (inactive); with DU-145, 11.7 µM (inactive). Besides, the GI50 in the test with SK-MEL-2 was 11.8 µM (inactive); in the test with SNB-75, 0.0631 µM (active); in the test on BT-549 it was 14.5 µM (inactive); with K562 it was 6.21 µM (inactive); in the test with SW-620, 10.9 µM (inactive); with 786-0 it was 15.9 µM (inactive). The GI50 with COLO 205 is 11.7 µM (inactive); in the test with CCRF-CEM, 0.13 µM (active).
For the compound `CN(C)c1ccc(/C=N/n2c(-c3ccccc3)nc3ccccc3c2=O)cc1`, the GI50 is > 100 µM (inactive) in the test on SF-295; 79.6 µM (inactive) in the test with M14; 24.5 µM (inactive) in the test on PC-3; 34.4 µM (inactive) with MOLT-4; 43.1 µM (inactive) with MDA-N; > 100 µM (inactive) in the test on DU-145. In addition, the GI50 with SK-MEL-5 is 33.3 µM (inactive); in the test with HOP-62, > 100 µM (inactive); with SK-MEL-2 it was 82.2 µM (inactive); with SNB-75, 24.4 µM (inactive); in the test on BT-549, 65.8 µM (inactive); in the test with OVCAR-8, 41.6 µM (inactive). The GI50 with SW-620 is > 100 µM (inactive); in the test on 786-0 it was > 100 µM (inactive); with COLO 205 it was 48.5 µM (inactive); in the test on CCRF-CEM, 46.8 µM (inactive).
Turning to `O=c1[nH]c2ccccc2c(=O)n1/N=C\c1ccccc1O`, the GI50 in the test on SF-295, with M14, in the test on PC-3, in the test on MOLT-4, in the test on MDA-N and in the test on UO-31 was > 100 µM (inactive) throughout. Also, the GI50 in the test with DU-145 is > 100 µM (inactive); with SK-MEL-5, 88.3 µM (inactive); in the test on HOP-62 it was > 100 µM (inactive); in the test with SK-MEL-2 it was > 100 µM (inactive); in the test on SNB-75, 36.4 µM (inactive); in the test with BT-549 it was > 100 µM (inactive). For the same compound, the GI50 with K562, in the test on SW-620, in the test with 786-0, in the test with COLO 205 and in the test on CCRF-CEM was > 100 µM (inactive) each time.
With `CCOC(=O)C1CC(O)C(=O)N1C` (configuration not stated), the GI50 in the test on SF-295, in the test on RXF 393, in the test with M14, with PC-3, with MOLT-4 and with MDA-N was > 100 µM (inactive) each time. The GI50 with UO-31, in the test with DU-145, in the test with SK-MEL-5, in the test with HOP-62, in the test with SK-MEL-2 and in the test with BT-549 was > 100 µM (inactive) throughout. In addition, the GI50 with 786-0, in the test on COLO 205 and with CCRF-CEM was > 100 µM (inactive) throughout.
Regarding `O=C(O)CCCCCNC(=O)CCC(CN(CC(=O)OCc1ccccc1)CC(=O)OCc1ccccc1)N(CC(=O)OCc1ccccc1)CC(=O)OCc1ccccc1` (configuration not stated), the GI50 is 17.3 µM (inactive) in the test on SF-295; 14.7 µM (inactive) with RXF 393; 17.5 µM (inactive) in the test with M14; 17 µM (inactive) in the test with PC-3; 15.2 µM (inactive) in the test with MOLT-4; 18.2 µM (inactive) in the test on MDA-N. Also, the GI50 in the test on UO-31 was 15.8 µM (inactive); in the test on DU-145, 19.5 µM (inactive); with SK-MEL-5 it was 17.3 µM (inactive); in the test on HOP-62, 20.1 µM (inactive); in the test with SK-MEL-2, 16 µM (inactive); with BT-549, 18.9 µM (inactive). Besides, the GI50 in the test with K562 is 12.5 µM (inactive); in the test with OVCAR-8, 16.5 µM (inactive); in the test on SW-620, 22.1 µM (inactive); in the test with 786-0, 18 µM (inactive); in the test on COLO 205 it was 16.7 µM (inactive); with CCRF-CEM it was 16 µM (inactive).
As for `Cc1cc(-c2ccc(C(=O)O)[nH]2)on1`, the GI50 in the test on SF-295 was 47.3 µM (inactive); with RXF 393, 74.8 µM (inactive); in the test with M14 it was 52 µM (inactive); with PC-3, 68.5 µM (inactive); with MOLT-4 it was > 100 µM (inactive); in the test on MDA-N, 4.91 µM (inactive). In addition, the GI50 is 55.6 µM (inactive) with UO-31; 62.4 µM (inactive) in the test on DU-145; 16.1 µM (inactive) in the test on SK-MEL-5; 65.2 µM (inactive) in the test on HOP-62; 88.5 µM (inactive) in the test on SK-MEL-2; 44.3 µM (inactive) with SNB-75. The GI50 with BT-549 was > 100 µM (inactive); in the test on K562, 56 µM (inactive); in the test on OVCAR-8, 61.4 µM (inactive); in the test on SW-620 it was 30.1 µM (inactive); with 786-0 it was 51.4 µM (inactive); in the test with COLO 205 it was 22.3 µM (inactive).
For the compound `COC(=O)CN(CC(=O)NCCCBr)C1CCCCC1N(CC(=O)OC)CC(=O)OC` (configuration not stated), the GI50 with SF-295 is > 100 µM (inactive); in the test with PC-3, > 100 µM (inactive); with MOLT-4, > 100 µM (inactive); in the test with MDA-N, > 100 µM (inactive); in the test on UO-31, 84.7 µM (inactive); with DU-145, > 100 µM (inactive). The GI50 with SK-MEL-5 was > 100 µM (inactive); in the test with HOP-62, > 100 µM (inactive); with SK-MEL-2, > 100 µM (inactive); in the test with SNB-75, 19.1 µM (inactive); in the test with BT-549, > 100 µM (inactive); in the test with K562 it was > 100 µM (inactive). The GI50 in the test on OVCAR-8, in the test with SW-620, in the test on 786-0, in the test on COLO 205 and in the test with CCRF-CEM was > 100 µM (inactive) throughout.

The values are drawn from ChEMBL document CHEMBL1201862, “PubChem BioAssay data set” (2004).
